Measured values: PubChem BioAssay AID248 (DTP/NCI, 2004)
Several values for one entry are separate records, joined by “and”; a condition that tells them apart may be missing. Equal entries are not always repeated. Inconclusive results and toxic doses are left out.

Test system: L1210 leukemia ip in BDF1 mice, survival T/C
Assay: NCI In Vivo Anticancer Drug Screen. Data for tumor model L1210 Leukemia (intraperitoneal) in B6D2F1 (BDF1) mice
Conditions: endpoint: mean survival time, higher = longer survival
How it was run: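 Ratio derived from survival: compound-dosed mice over vehicle-dosed mice, all bearing a transplantable tumor.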

[1] = dose: 100.0 mg/kg/injection, schedule: Q01DX009 (ip), vehicle: Klucel (hydroxypropylcellulose) (HPC)
[2] = dose: 100.0 mg/kg/injection, schedule: Q04DX003 (ip), vehicle: Klucel (hydroxypropylcellulose) (HPC)
[3] = dose: 200.0 mg/kg/injection, schedule: Q01DX009 (ip), vehicle: Klucel (hydroxypropylcellulose) (HPC)
[4] = dose: 200.0 mg/kg/injection, schedule: Q04DX003 (ip), vehicle: Klucel (hydroxypropylcellulose) (HPC)
[5] = dose: 400.0 mg/kg/injection, schedule: Q01DX009 (ip), vehicle: Klucel (hydroxypropylcellulose) (HPC)
[6] = dose: 400.0 mg/kg/injection, schedule: Q04DX003 (ip), vehicle: Klucel (hydroxypropylcellulose) (HPC)
[7] = dose: 100.0 mg/kg/injection, schedule: Q01DX001 (ip), vehicle: saline
[8] = dose: 100.0 mg/kg/injection, schedule: Q04DX003 (ip), vehicle: saline with Tween-80
[9] = dose: 200.0 mg/kg/injection, schedule: Q04DX003 (ip), vehicle: saline with Tween-80
[10] = dose: 400.0 mg/kg/injection, schedule: Q04DX003 (ip), vehicle: saline with Tween-80
[11] = dose: 50.0 mg/kg/injection, schedule: Q01DX009 (ip), vehicle: Klucel (hydroxypropylcellulose) (HPC)
[12] = dose: 50.0 mg/kg/injection, schedule: Q04DX003 (ip), vehicle: Klucel (hydroxypropylcellulose) (HPC)
[13] = dose: 100.0 mg/kg/injection, schedule: Q01DX009 (ip), vehicle: saline
[14] = dose: 400.0 mg/kg/injection, schedule: Q01DX009 (ip), vehicle: saline
[15] = dose: 25.0 mg/kg/injection, schedule: Q04DX003 (ip), vehicle: Klucel (hydroxypropylcellulose) (HPC)
[16] = dose: 100.0 mg/kg/injection, schedule: Q01DX009 (ip), vehicle: saline with Tween-80
[17] = dose: 200.0 mg/kg/injection, schedule: Q01DX009 (ip), vehicle: saline with Tween-80
[18] = dose: 100.0 mg/kg/injection, schedule: Q04DX003 (ip), vehicle: saline
[19] = dose: 200.0 mg/kg/injection, schedule: Q04DX003 (ip), vehicle: saline
[20] = dose: 400.0 mg/kg/injection, schedule: Q04DX003 (ip), vehicle: saline
[21] = dose: 200.0 mg/kg/injection, schedule: Q01DX001 (ip), vehicle: saline
[22] = dose: 400.0 mg/kg/injection, schedule: Q01DX001 (ip), vehicle: saline

## CCSc1nc(=S)cc(C)[nH]1
[1]
  T/C: 96 % of control
[2]
  T/C: 103 % of control
[3]
  T/C: 91 % of control
[4]
  T/C: 98 % of control
[5]
  T/C: 90 % of control
[6]
  T/C: 87 % of control

## Nc1cc2c3c(cccc3c1Br)C(=O)NC2=O
dose: 100.0 mg/kg/injection, schedule: Q04DX002 (ip), vehicle: Klucel (hydroxypropylcellulose) (HPC)
  T/C: 121 % of control
dose: 200.0 mg/kg/injection, schedule: Q04DX002 (ip), vehicle: Klucel (hydroxypropylcellulose) (HPC)
  T/C: 96 % of control
dose: 400.0 mg/kg/injection, schedule: Q04DX002 (ip), vehicle: Klucel (hydroxypropylcellulose) (HPC)
  T/C: 107 % of control

## CC1(C)N=C(N)N=C(N)N1c1cccc(C(=O)O)c1
dose: 25.0 mg/kg/injection, schedule: Q01DX001 (ip), vehicle: saline
  T/C: 100 % of control
dose: 50.0 mg/kg/injection, schedule: Q01DX001 (ip), vehicle: saline
  T/C: 102 % of control
[7]
  T/C: 105 % of control

## CCOC(=O)c1ccc(NC(=O)CC(C)=O)cc1
[8]
  T/C: 103 % of control
[9]
  T/C: 101 % of control
[10]
  T/C: 97 % of control

## O=C(NO)c1cccnc1
[1]
  T/C: 97 % of control
[3]
  T/C: 102 % of control
dose: 270.0 mg/kg/injection, schedule: Q01DX009 (ip), vehicle: acetone
  T/C: 102 % of control
dose: 270.0 mg/kg/injection, schedule: Q01DX015 (ip), vehicle: water
  T/C: 121 % of control
dose: 400.0 mg/kg/injection, schedule: Q01DX001 (ip), vehicle: water
  T/C: 99 % of control
[5]
  T/C: 101 % of control
dose: 400.0 mg/kg/injection, schedule: Q01DX009 (ip), vehicle: acetone
  T/C: 109 % of control
dose: 600.0 mg/kg/injection, schedule: Q01DX001 (ip), vehicle: water
  T/C: 106 % of control
dose: 600.0 mg/kg/injection, schedule: Q01DX009 (ip), vehicle: acetone
  T/C: 100 % of control
dose: 800.0 mg/kg/injection, schedule: Q01DX001 (ip), vehicle: water
  T/C: 99 % of control
dose: 800.0 mg/kg/injection, schedule: Q01DX009 (ip), vehicle: Klucel (hydroxypropylcellulose) (HPC)
  T/C: 109 % of control
dose: 800.0 mg/kg/injection, schedule: Q01DX009 (ip), vehicle: acetone
  T/C: 103 % of control
dose: 800.0 mg/kg/injection, schedule: Q01DX015 (ip), vehicle: water
  T/C: 110 % of control and 117 % of control

## CCCCCCOc1ccc(C=Nc2ccc(C)cc2)cc1
[2]
  T/C: 97 % of control
[4]
  T/C: 103 % of control
[6]
  T/C: 101 % of control

## COC1OC(COS(=O)(=O)c2ccc(C)cc2)C2OC(C)(C)OC12 (stereo unspecified)
[11]
  T/C: 107 % of control
[12]
  T/C: 92 % of control
[1]
  T/C: 95 % of control
[13]
  T/C: 96 % of control
[2]
  T/C: 92 % of control and 94 % of control
[3]
  T/C: 104 % of control
dose: 200.0 mg/kg/injection, schedule: Q01DX009 (ip), vehicle: saline
  T/C: 91 % of control
[4]
  T/C: 92 % of control and 91 % of control
[5]
  T/C: 96 % of control
[14]
  T/C: 91 % of control
[6]
  T/C: 105 % of control and 91 % of control

## CC(C)NNC(C)Cc1ccccc1 (stereo unspecified)
[15]
  T/C: 104 % of control
[12]
  T/C: 102 % of control
[2]
  T/C: 98 % of control

## C[n+]1ccc(NC(=O)c2ccc(NC(=O)c3ccc(C(=O)Nc4ccc(C(=O)Nc5cc[n+](C)cc5)cc4)cc3)cc2)cc1
dose: 62.0 mg/kg/injection, schedule: Q01DX Z (ip), vehicle: carboxymethylcellulose (CMC)
  T/C: 103 % of control
dose: 100.0 mg/kg/injection, schedule: Q01DX001 (ip), vehicle: other
  T/C: 97 % of control
[16]
  T/C: 105 % of control
dose: 100.0 mg/kg/injection, schedule: Q04DX003 (ip), vehicle: other
  T/C: 101 % of control
dose: 125.0 mg/kg/injection, schedule: Q01DX Z (ip), vehicle: carboxymethylcellulose (CMC)
  T/C: 118 % of control
dose: 200.0 mg/kg/injection, schedule: Q01DX001 (ip), vehicle: other
  T/C: 104 % of control
[17]
  T/C: 115 % of control
dose: 200.0 mg/kg/injection, schedule: Q04DX003 (ip), vehicle: other
  T/C: 103 % of control
dose: 400.0 mg/kg/injection, schedule: Q01DX001 (ip), vehicle: other
  T/C: 103 % of control
dose: 400.0 mg/kg/injection, schedule: Q01DX009 (ip), vehicle: saline with Tween-80
  T/C: 114 % of control
dose: 400.0 mg/kg/injection, schedule: Q04DX003 (ip), vehicle: other
  T/C: 98 % of control
dose: 500.0 mg/kg/injection, schedule: Q01DX Z (ip), vehicle: carboxymethylcellulose (CMC)
  T/C: 152 % of control

## COc1ccc([N+](=O)[O-])cc1NC(=O)Nc1ccc(CCO)cc1
[11]
  T/C: 92 % of control
[1]
  T/C: 105 % of control
[3]
  T/C: 97 % of control

## Clc1ccc(C2CC3(CC(c4ccc(Cl)cc4)N2)SSC2(CC(c4ccc(Cl)cc4)NC(c4ccc(Cl)cc4)C2)S3)cc1 (stereo unspecified)
[1]
  T/C: 98 % of control
[3]
  T/C: 108 % of control
[5]
  T/C: 98 % of control

## O=C(Nc1ccc(C(=O)CCl)cc1)Nc1ccc(C(=O)CCl)cc1
dose: 100.0 mg/kg/injection, schedule: Q01DX005 (ip), vehicle: saline
  T/C: 100 % of control
[18]
  T/C: 101 % of control
dose: 200.0 mg/kg/injection, schedule: Q01DX005 (ip), vehicle: saline
  T/C: 102 % of control
[19]
  T/C: 104 % of control
dose: 400.0 mg/kg/injection, schedule: Q01DX005 (ip), vehicle: saline
  T/C: 103 % of control
[20]
  T/C: 93 % of control

## COC(=O)C1(C)CCC(c2ccc(OC)cc2)C(CC(=O)O)C1=O (stereo unspecified)
[13]
  T/C: 93 % of control
[18]
  T/C: 95 % of control
[19]
  T/C: 98 % of control
[14]
  T/C: 90 % of control
[20]
  T/C: 93 % of control

## O=C1Nc2ccccc2Cc2ccccc21
[16]
  T/C: 93 % of control
[8]
  T/C: 102 % of control
[17]
  T/C: 92 % of control
[9]
  T/C: 102 % of control
[10]
  T/C: 107 % of control

## Cc1ccc(S(=O)(=O)OC23CCC(C)(CC2)C2(C3)OCCO2)cc1
dose: 100.0 mg/kg/injection, schedule: Q04DX002 (ip), vehicle: saline
  T/C: 95 % of control
dose: 200.0 mg/kg/injection, schedule: Q04DX002 (ip), vehicle: saline
  T/C: 98 % of control
dose: 400.0 mg/kg/injection, schedule: Q04DX002 (ip), vehicle: saline
  T/C: 98 % of control

## Cc1ccc(Nc2ccc([N+](=O)[O-])cc2[N+](=O)[O-])c(C)c1
[1]
  T/C: 94 % of control
[2]
  T/C: 96 % of control
[3]
  T/C: 101 % of control
[4]
  T/C: 91 % of control
[5]
  T/C: 103 % of control
[6]
  T/C: 98 % of control

## COc1cc(NC(=O)O/N=C/c2ccccn2)cc(OC)c1OC
[16]
  T/C: 91 % of control
[17]
  T/C: 92 % of control

## COC(=O)[C@H]1[C@H]2C[C@@H]3c4[nH]c5cc(OC)ccc5c4CCN3C[C@H]2C[C@@H](OC(=O)/C=C/c2cc(OC)c(OC)c(OC)c2)[C@@H]1OC
dose: 3.12 mg/kg/injection, schedule: Q01DX009 (ip), vehicle: Klucel (hydroxypropylcellulose) (HPC)
  T/C: 96 % of control
dose: 6.25 mg/kg/injection, schedule: Q01DX009 (ip), vehicle: Klucel (hydroxypropylcellulose) (HPC)
  T/C: 96 % of control
dose: 12.5 mg/kg/injection, schedule: Q01DX009 (ip), vehicle: Klucel (hydroxypropylcellulose) (HPC)
  T/C: 105 % of control
dose: 25.0 mg/kg/injection, schedule: Q01DX009 (ip), vehicle: Klucel (hydroxypropylcellulose) (HPC)
  T/C: 96 % of control
[15]
  T/C: 111 % of control
[11]
  T/C: 100 % of control
[12]
  T/C: 103 % of control

## CC(=O)C(C)C(O)c1ccc([N+](=O)[O-])cc1 (stereo unspecified)
[1]
  T/C: 91 % of control
[2]
  T/C: 100 % of control
[3]
  T/C: 91 % of control
[4]
  T/C: 98 % of control
[5]
  T/C: 92 % of control
[6]
  T/C: 98 % of control

## C[n+]1c(O)c(C(=O)CCl)n2cc([N+](=O)[O-])ccc21
[7]
  T/C: 100 % of control
[21]
  T/C: 92 % of control
[22]
  T/C: 101 % of control

## CCOc1cc(OCC)c(C=O)c(OCC)c1
dose: 100.0 mg/kg/injection, schedule: Q01DX009 (ip), vehicle: other
  T/C: 96 % of control
[21]
  T/C: 88 % of control
dose: 200.0 mg/kg/injection, schedule: Q01DX009 (ip), vehicle: other
  T/C: 94 % of control
[22]
  T/C: 102 % of control
dose: 400.0 mg/kg/injection, schedule: Q01DX009 (ip), vehicle: other
  T/C: 97 % of control
